Measured values: the NIST ThermoML archive (doi:10.1016/j.tca.2015.06.017)

Assay: xn = mol fraction of the nth substance listed
Details: Liquid, Vibrating tube method

CC(C)CCl [1-chloro-2-methylpropane] + CCCCCCC
mass density [kg/m3]
Details | 283.15 K | 293.15 K | 298.15 K
100 kPa, x2 = 0.0531 | 874.07 | 862.97 | 857.37
100 kPa, x2 = 0.1023 | 861 | 850.09 | 844.58
100 kPa, x2 = 0.2009 | 836.3 | 825.74 | 820.42
100 kPa, x2 = 0.3009 | 813.26 | 803.04 | 797.89
100 kPa, x2 = 0.3981 | 792.55 | 782.63 | 777.63
100 kPa, x2 = 0.4986 | 772.68 | 763.05 | 758.2
100 kPa, x2 = 0.5998 | 754.11 | 744.76 | 740.04
100 kPa, x2 = 0.7038 | 736.38 | 727.31 | 722.73
100 kPa, x2 = 0.7993 | 721.25 | 712.4 | 707.93
100 kPa, x2 = 0.8995 | 706.4 | 697.78 | 693.43
100 kPa, x2 = 0.9507 | 699.19 | 690.68 | 686.38
2000 kPa, x2 = 0.0531 | 876.04 | 865 | 859.45
2000 kPa, x2 = 0.1023 | 862.99 | 852.14 | 846.69
2000 kPa, x2 = 0.2009 | 838.37 | 827.88 | 822.61
2000 kPa, x2 = 0.3009 | 815.32 | 805.15 | 800.07
2000 kPa, x2 = 0.3981 | 794.55 | 784.68 | 779.77
2000 kPa, x2 = 0.4986 | 774.64 | 765.08 | 760.3
2000 kPa, x2 = 0.5998 | 756.04 | 746.74 | 742.16
2000 kPa, x2 = 0.7038 | 738.29 | 729.29 | 724.79
2000 kPa, x2 = 0.7993 | 723.14 | 714.35 | 709.96
2000 kPa, x2 = 0.8995 | 708.31 | 699.74 | 695.5
2000 kPa, x2 = 0.9507 | 701.15 | 692.69 | 688.51
5000 kPa, x2 = 0.0531 | 879.03 | 868.28 | 862.78
5000 kPa, x2 = 0.1023 | 865.96 | 855.4 | 849.99
5000 kPa, x2 = 0.2009 | 841.29 | 831.08 | 825.85
5000 kPa, x2 = 0.3009 | 818.18 | 808.31 | 803.24
5000 kPa, x2 = 0.3981 | 797.37 | 787.79 | 782.87
5000 kPa, x2 = 0.4986 | 777.41 | 768.11 | 763.35
5000 kPa, x2 = 0.5998 | 758.77 | 749.74 | 745.14
5000 kPa, x2 = 0.7038 | 741 | 732.21 | 727.73
5000 kPa, x2 = 0.7993 | 725.78 | 717.25 | 712.83
5000 kPa, x2 = 0.8995 | 710.91 | 702.62 | 698.32
5000 kPa, x2 = 0.9507 | 703.73 | 695.55 | 691.31
7000 kPa, x2 = 0.0531 | 880.97 | 870.39 | 864.94
7000 kPa, x2 = 0.1023 | 867.88 | 857.47 | 852.13
7000 kPa, x2 = 0.2009 | 843.19 | 833.12 | 827.95
7000 kPa, x2 = 0.3009 | 820.06 | 810.3 | 805.31
7000 kPa, x2 = 0.3981 | 799.24 | 789.75 | 784.94
7000 kPa, x2 = 0.4986 | 779.24 | 770.05 | 765.38
7000 kPa, x2 = 0.5998 | 760.58 | 751.63 | 747.13
7000 kPa, x2 = 0.7038 | 742.77 | 734.07 | 729.69
7000 kPa, x2 = 0.7993 | 727.56 | 719.06 | 714.76
7000 kPa, x2 = 0.8995 | 712.67 | 704.42 | 700.23
7000 kPa, x2 = 0.9507 | 705.48 | 697.32 | 693.2
10000 kPa, x2 = 0.0531 | 883.84 | 873.43 | 868.11
10000 kPa, x2 = 0.1023 | 870.72 | 860.49 | 855.26
10000 kPa, x2 = 0.2009 | 845.97 | 836.1 | 831
10000 kPa, x2 = 0.3009 | 822.78 | 813.24 | 808.29
10000 kPa, x2 = 0.3981 | 801.92 | 792.65 | 787.84
10000 kPa, x2 = 0.4986 | 781.87 | 772.89 | 768.21
10000 kPa, x2 = 0.5998 | 763.16 | 754.46 | 749.91
10000 kPa, x2 = 0.7038 | 745.31 | 736.87 | 732.42
10000 kPa, x2 = 0.7993 | 730.05 | 721.81 | 717.45
10000 kPa, x2 = 0.8995 | 715.13 | 707.11 | 702.88
10000 kPa, x2 = 0.9507 | 707.91 | 700 | 695.78
20000 kPa, x2 = 0.0531 | 892.78 | 882.96 | 877.88
20000 kPa, x2 = 0.1023 | 879.6 | 869.95 | 865.08
20000 kPa, x2 = 0.2009 | 854.73 | 845.39 | 840.5
20000 kPa, x2 = 0.3009 | 831.42 | 822.38 | 817.71
20000 kPa, x2 = 0.3981 | 810.43 | 801.64 | 797.11
20000 kPa, x2 = 0.4986 | 790.3 | 781.73 | 777.37
20000 kPa, x2 = 0.5998 | 771.47 | 763.14 | 758.88
20000 kPa, x2 = 0.7038 | 753.52 | 745.41 | 741.28
20000 kPa, x2 = 0.7993 | 738.16 | 730.25 | 726.13
20000 kPa, x2 = 0.8995 | 723.13 | 715.39 | 711.41
20000 kPa, x2 = 0.9507 | 715.85 | 708.22 | 704.25
30000 kPa, x2 = 0.0531 | 900.97 | 891.52 | 886.78
30000 kPa, x2 = 0.1023 | 887.68 | 878.34 | 873.9
30000 kPa, x2 = 0.2009 | 862.6 | 853.68 | 849.18
30000 kPa, x2 = 0.3009 | 839.17 | 830.55 | 826.21
30000 kPa, x2 = 0.3981 | 818.12 | 809.73 | 805.55
30000 kPa, x2 = 0.4986 | 797.85 | 789.74 | 785.57
30000 kPa, x2 = 0.5998 | 778.93 | 771.06 | 766.94
30000 kPa, x2 = 0.7038 | 760.8 | 753.18 | 749.15
30000 kPa, x2 = 0.7993 | 745.44 | 737.88 | 733.94
30000 kPa, x2 = 0.8995 | 730.29 | 722.93 | 719.07
30000 kPa, x2 = 0.9507 | 722.95 | 715.7 | 711.84
40000 kPa, x2 = 0.0531 | 908.57 | 899.47 | 895.02
40000 kPa, x2 = 0.1023 | 895.22 | 886.28 | 882.04
40000 kPa, x2 = 0.2009 | 870.06 | 861.43 | 857.18
40000 kPa, x2 = 0.3009 | 846.56 | 838.11 | 834.09
40000 kPa, x2 = 0.3981 | 825.29 | 817.16 | 813.22
40000 kPa, x2 = 0.4986 | 804.92 | 797.04 | 793.13
40000 kPa, x2 = 0.5998 | 785.84 | 778.18 | 774.36
40000 kPa, x2 = 0.7038 | 767.67 | 760.15 | 756.46
40000 kPa, x2 = 0.7993 | 752.19 | 744.84 | 741.11
40000 kPa, x2 = 0.8995 | 736.93 | 729.76 | 726.12
40000 kPa, x2 = 0.9507 | 729.53 | 722.48 | 718.83
50000 kPa, x2 = 0.0531 | 915.66 | 906.83 | 902.53
50000 kPa, x2 = 0.1023 | 902.32 | 893.73 | 889.53
50000 kPa, x2 = 0.2009 | 876.98 | 868.58 | 864.58
50000 kPa, x2 = 0.3009 | 853.42 | 845.22 | 841.36
50000 kPa, x2 = 0.3981 | 832.08 | 824.17 | 820.34
50000 kPa, x2 = 0.4986 | 811.56 | 803.9 | 800.16
50000 kPa, x2 = 0.5998 | 792.36 | 784.93 | 781.27
50000 kPa, x2 = 0.7038 | 774.06 | 766.85 | 763.24
50000 kPa, x2 = 0.7993 | 758.41 | 751.39 | 747.78
50000 kPa, x2 = 0.8995 | 743.05 | 736.21 | 732.67
50000 kPa, x2 = 0.9507 | 735.59 | 728.86 | 725.32
60000 kPa, x2 = 0.0531 | 922.27 | 913.81 | 909.64
60000 kPa, x2 = 0.1023 | 908.86 | 900.5 | 896.54
60000 kPa, x2 = 0.2009 | 883.47 | 875.39 | 871.48
60000 kPa, x2 = 0.3009 | 859.78 | 851.83 | 848.21
60000 kPa, x2 = 0.3981 | 838.33 | 830.75 | 827.13
60000 kPa, x2 = 0.4986 | 817.73 | 810.36 | 806.82
60000 kPa, x2 = 0.5998 | 798.43 | 791.29 | 787.83
60000 kPa, x2 = 0.7038 | 780.03 | 773.13 | 769.72
60000 kPa, x2 = 0.7993 | 764.33 | 757.58 | 754.16
60000 kPa, x2 = 0.8995 | 748.87 | 742.31 | 738.97
60000 kPa, x2 = 0.9507 | 741.35 | 734.9 | 731.55
65000 kPa, x2 = 0.0531 | 925.46 | 917.1 | 913.06
65000 kPa, x2 = 0.1023 | 912 | 903.79 | 899.93
65000 kPa, x2 = 0.2009 | 886.55 | 878.75 | 874.82
65000 kPa, x2 = 0.3009 | 862.78 | 855.14 | 851.5
65000 kPa, x2 = 0.3981 | 841.29 | 833.84 | 830.36
65000 kPa, x2 = 0.4986 | 820.65 | 813.47 | 810
65000 kPa, x2 = 0.5998 | 801.22 | 794.31 | 790.97
65000 kPa, x2 = 0.7038 | 782.82 | 775.99 | 772.79
65000 kPa, x2 = 0.7993 | 767.1 | 760.39 | 757.19
65000 kPa, x2 = 0.8995 | 751.59 | 745.06 | 741.93
65000 kPa, x2 = 0.9507 | 744.04 | 737.63 | 734.52
